The results in this text go back to PubChem BioAssay (NCI).

Among the test systems are SN12C renal; SF-268 CNS; HS 578T breast; SW-620 colon; RXF 393 renal; NCI-H23 lung; OVCAR-5 ovarian; UACC-257 melanoma; MALME-3M melanoma; HOP-62 NSCLC.
What all share (assay): NCI tumour cell line growth inhibition, 48 h

Several values for one entry are separate records, joined by “and”; a condition that tells them apart may be missing. Equal values may be shown once.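 Five concentrations, 48 hours, 96-well plates. GI50: concentration for 50% inhibition of growth. At the TGI there is no net growth.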 Where only a bound is given, the exact number is not on record here.

On to `CCOC(=O)c1c(C)c2c(n1C)CSc1cc(S(=O)(=O)c3ccccc3)c(=O)[nH]c1-2`, for which the GI50 in the assay on SN12C renal was 27.6 µM; in the assay with SF-268 CNS, 27.8 µM; in the assay on HS 578T breast, 40.1 µM; in the assay with SW-620 colon it was 35.1 µM; in the assay on RXF 393 renal it was 44.4 µM; in the assay on NCI-H23 lung, 28.6 µM. Further, the GI50 in the assay on OVCAR-5 ovarian is 45.6 µM; with UACC-257 melanoma, 34.5 µM; with MALME-3M melanoma it was 35.1 µM; in the assay on HOP-62 NSCLC, 31.5 µM. Besides, the TGI with SN12C renal, in the assay on SF-268 CNS, with HS 578T breast, in the assay on SW-620 colon, in the assay with RXF 393 renal and with NCI-H23 lung was greater than 100 µM each time. The TGI was greater than 100 µM with OVCAR-5 ovarian, greater than 100 µM in the assay on UACC-257 melanoma, greater than 100 µM with MALME-3M melanoma and 89.9 µM with HOP-62 NSCLC.

Regarding `Cc1oc2c(c1C(=O)c1ccccc1)C(=O)c1ccccc1C2=O`, the TGI with SN12C renal was 25.2 µM; in the assay with SF-268 CNS it was 32.8 µM; with HS 578T breast it was greater than 100 µM; with SW-620 colon it was 4.59 µM; with RXF 393 renal it was 8.2 µM; with NCI-H23 lung, 8.36 µM. The TGI stood at 31.5 µM in the assay with OVCAR-5 ovarian, 10.5 µM in the assay on UACC-257 melanoma, 4.53 µM in the assay with MALME-3M melanoma and 22.4 µM in the assay on HOP-62 NSCLC.

For `CC/C(=C(\c1ccc(O)cc1)c1ccc(OCCNC)cc1)c1ccccc1`, the GI50 is 1.98 µM and 2.86 µM and 3.02 µM with SN12C renal; 2.25 µM and 1.74 µM and 2.06 µM in the assay with SF-268 CNS; 0.356 µM and 1.34 µM and 1.78 µM in the assay with HS 578T breast; 1.69 µM and 1.75 µM and 1.85 µM with SW-620 colon; 1.5 µM and 1.63 µM and 1.37 µM with RXF 393 renal; 2.13 µM and 1.97 µM and 2.1 µM in the assay on NCI-H23 lung. Moreover, the GI50 is 2.82 µM and 2.44 µM and 2.09 µM in the assay on OVCAR-5 ovarian; 1.93 µM and 1.64 µM and 1.7 µM in the assay with UACC-257 melanoma; 1.76 µM and 1.66 µM and 1.82 µM in the assay with MALME-3M melanoma; 1.88 µM and 1.83 µM and 1.71 µM in the assay on HOP-62 NSCLC. Besides, the TGI in the assay on SN12C renal was 8.84 µM and 9.58 µM and 10.4 µM; in the assay with SF-268 CNS, 5.24 µM and 3.76 µM and 4.74 µM; with HS 578T breast, 3.42 µM and 3.32 µM and 5.18 µM; in the assay on SW-620 colon it was 3.11 µM and 3.26 µM and 3.74 µM; with RXF 393 renal, 3.68 µM and 3.3 µM and 2.8 µM; in the assay with NCI-H23 lung, 4.8 µM and 4.29 µM and 4.45 µM. Moreover, the TGI is 8.23 µM and 6.35 µM and 4.77 µM in the assay with OVCAR-5 ovarian; 3.82 µM and 3.35 µM and 3.28 µM in the assay with UACC-257 melanoma; 3.49 µM and 3.29 µM and 3.5 µM with MALME-3M melanoma; 3.35 µM and 3.32 µM and 3.42 µM in the assay on HOP-62 NSCLC.

Turning to `CCOC(=O)c1cc(C(=O)c2cc(OC)cc(OC)c2)n2ncccc12`, the GI50 with SN12C renal is 4.16 µM; with SF-268 CNS, 26.5 µM; with HS 578T breast, 1.99 µM; in the assay on SW-620 colon, 0.518 µM; in the assay on RXF 393 renal, 1.64 µM; in the assay with NCI-H23 lung, 4.9 µM. The GI50 in the assay on OVCAR-5 ovarian is 43.5 µM; in the assay on UACC-257 melanoma it was 67.1 µM; in the assay on MALME-3M melanoma, greater than 100 µM; in the assay with HOP-62 NSCLC it was 10.2 µM. Besides, the TGI is greater than 100 µM in the assay with SN12C renal; greater than 100 µM in the assay with SF-268 CNS; greater than 100 µM in the assay with HS 578T breast; greater than 100 µM in the assay with SW-620 colon; 14.2 µM in the assay on RXF 393 renal; greater than 100 µM in the assay on NCI-H23 lung. Also, the TGI in the assay on OVCAR-5 ovarian, in the assay with UACC-257 melanoma, with MALME-3M melanoma and in the assay with HOP-62 NSCLC was greater than 100 µM throughout.

As to `N#Cc1c(NC(=O)CCC(=O)O)ccc2ccccc12`, the TGI in the assay with SN12C renal, in the assay with SF-268 CNS, in the assay with HS 578T breast, in the assay with SW-620 colon, in the assay on RXF 393 renal and in the assay on NCI-H23 lung was greater than 100 µM throughout. The TGI with OVCAR-5 ovarian, in the assay with UACC-257 melanoma, in the assay with MALME-3M melanoma and in the assay on HOP-62 NSCLC was greater than 100 µM throughout.

Turning to `Cc1ccnc2c1NC(=O)c1cccnc1N2C1CC1`, the GI50 with SN12C renal, in the assay on SF-268 CNS, in the assay on HS 578T breast, with SW-620 colon, in the assay on RXF 393 renal and in the assay with NCI-H23 lung was greater than 100 µM in each case. Moreover, the GI50 in the assay on OVCAR-5 ovarian, in the assay on UACC-257 melanoma and with HOP-62 NSCLC was greater than 100 µM in each case. Besides, the TGI in the assay on SN12C renal, in the assay on SF-268 CNS, in the assay on HS 578T breast, with SW-620 colon, in the assay on RXF 393 renal and in the assay with NCI-H23 lung was greater than 100 µM throughout. Besides, the TGI with OVCAR-5 ovarian, in the assay on UACC-257 melanoma and in the assay on HOP-62 NSCLC was greater than 100 µM each time.

As for `COc1ccc(/C=N/NC(=O)O)cc1`, the TGI with SN12C renal, in the assay with HS 578T breast, with SW-620 colon, in the assay on RXF 393 renal, in the assay on NCI-H23 lung and in the assay with OVCAR-5 ovarian was greater than 100 µM each time. Further, the TGI in the assay on UACC-257 melanoma, in the assay on MALME-3M melanoma and in the assay with HOP-62 NSCLC was greater than 100 µM each time.

Turning to `COCCOC(C)C(/C=N/NC(N)=S)=N/NC(N)=S` (stereo not given), the GI50 with SN12C renal, with SF-268 CNS, in the assay on HS 578T breast, with SW-620 colon, in the assay on RXF 393 renal and with NCI-H23 lung was greater than 100 µM in each case. For the same molecule, the values for the GI50 in the assay on OVCAR-5 ovarian, in the assay on UACC-257 melanoma and in the assay on HOP-62 NSCLC were greater than 100 µM, 0.0232 µM and greater than 100 µM, respectively. Moreover, the TGI with SN12C renal, in the assay on SF-268 CNS, with HS 578T breast, in the assay with SW-620 colon, with RXF 393 renal and in the assay on NCI-H23 lung was greater than 100 µM in each case. The TGI in the assay on OVCAR-5 ovarian, in the assay on UACC-257 melanoma and in the assay with HOP-62 NSCLC was greater than 100 µM each time.

Consider `C/C=C(/C)C(=O)OC1C=C(CO)C(=O)C(OC(=O)/C(C)=C\C)C1C(C)C` (stereo not given), for which the GI50 is 0.546 µM with SN12C renal; 1.46 µM with SF-268 CNS; 2.35 µM with HS 578T breast; 1.13 µM in the assay on RXF 393 renal; 1.5 µM with NCI-H23 lung; 0.976 µM in the assay with OVCAR-5 ovarian. The GI50 with UACC-257 melanoma is 1.28 µM; in the assay with MALME-3M melanoma it was 0.61 µM; with HOP-62 NSCLC it was 2.03 µM. Also, the TGI in the assay on SN12C renal stood at 1.59 µM; in the assay on SF-268 CNS, 3.05 µM; in the assay with HS 578T breast it was 6.29 µM; in the assay with RXF 393 renal it was 2.54 µM; with NCI-H23 lung, 3.23 µM; in the assay on OVCAR-5 ovarian it was 2.5 µM. Moreover, the TGI in the assay with UACC-257 melanoma stood at 2.65 µM; with MALME-3M melanoma it was 1.63 µM; in the assay on HOP-62 NSCLC, 3.73 µM.

Regarding `Cc1ccc(NC2=C(Cl)C(=O)c3nc(C)ccc3C2=O)cc1`, the GI50 in the assay on SN12C renal was 1.37 µM; in the assay on SF-268 CNS it was 1.74 µM; with HS 578T breast, 1.88 µM; in the assay with SW-620 colon, 1.74 µM; in the assay with RXF 393 renal, 1.57 µM; in the assay with OVCAR-5 ovarian, 1.87 µM. Besides, the GI50 with UACC-257 melanoma was 1.58 µM; in the assay on MALME-3M melanoma it was 1.75 µM; with HOP-62 NSCLC it was 0.836 µM. Moreover, the TGI is 2.85 µM in the assay with SN12C renal; 3.78 µM in the assay on SF-268 CNS; 4.8 µM in the assay with HS 578T breast; 3.7 µM in the assay with SW-620 colon; 2.96 µM with RXF 393 renal; 3.62 µM in the assay with OVCAR-5 ovarian. For the same molecule, the TGI was 3 µM in the assay on UACC-257 melanoma, 3.23 µM in the assay with MALME-3M melanoma and 2.58 µM with HOP-62 NSCLC.

On to `CSC(=S)NN=C1CCCCC1`, for which the TGI with SN12C renal was 84.9 µM; in the assay with SF-268 CNS it was greater than 100 µM; with HS 578T breast, greater than 100 µM; in the assay with SW-620 colon, greater than 100 µM; in the assay on RXF 393 renal, greater than 100 µM; in the assay with NCI-H23 lung, greater than 100 µM. Moreover, the TGI with UACC-257 melanoma is greater than 100 µM; in the assay on MALME-3M melanoma it was 44.8 µM; in the assay with HOP-62 NSCLC, greater than 100 µM.

Take `C=CC1=C(C)C2=NC1=CC1=NC(=C(CC)/C1=C/O)C=C1C=C3C(=O)C(C(=O)OC)C(=C4NC(=C2)C(C)C4CCC(=O)OC/C=C(\C)CCCC(C)CCCC(C)CCCC(C)C)C3=N1` (stereo not given) (tested in a mixture with another compound): the TGI in the assay on SN12C renal, with SF-268 CNS, in the assay on HS 578T breast, in the assay on SW-620 colon, with NCI-H23 lung and in the assay with OVCAR-5 ovarian was greater than 100 µM each time. Also, the TGI in the assay with UACC-257 melanoma and with HOP-62 NSCLC was greater than 100 µM in each case.

Regarding `CC(=O)N1c2ccccc2C23CCN4CC5=CCOC(O)C(C5CC42)C13` (stereo not given), the TGI with SN12C renal, in the assay with SF-268 CNS, in the assay on HS 578T breast, with SW-620 colon, in the assay on NCI-H23 lung and in the assay on OVCAR-5 ovarian was greater than 100 µM in each case. Besides, the TGI in the assay on UACC-257 melanoma and in the assay with MALME-3M melanoma was greater than 100 µM in each case.

Consider `CCCCCN(CCCCC)C(=O)[C@@H](CCC(=O)OCc1ccccc1)NC(=O)c1cc2ccccc2[nH]1`, for which the TGI in the assay with SN12C renal, in the assay on SF-268 CNS, with SW-620 colon, with RXF 393 renal, in the assay with NCI-H23 lung and in the assay on OVCAR-5 ovarian was greater than 100 µM throughout. The TGI in the assay with UACC-257 melanoma, with MALME-3M melanoma and with HOP-62 NSCLC was greater than 100 µM throughout.
